Measured values: patent publication US20060275268A1, “COMPOSITIONS FOR ACTIVATING THE INFILTRATION ACTIVITY OF DENDRITIC CELLS, AND IMMUNOPOTENTIATING AGENTS” (priority 2003, published 2006)

Tests used:
dendritic cells = experiment: Infiltration activity of dendritic cells by the Transwell Chamber method (Matrigel); type: cell-based, human; settings: for infiltration activity of immature and mature dendritic cells: 10 ng/ml added, FIG. 8
Method: Peripheral blood mononuclear cells (PBMCs) from healthy subjects were separated by Ficoll-Paque density gradient centrifugation. Peripheral blood mononuclear cells were dispersed at a cell density of 2×10^6 cells/ml in complete RPMI-1640e medium, and the resulting suspension is incubated at 37° C. for one hour to give adhesive cells. Nonadhesive cells were removed by washing five times with RPMI-1640 medium. The adhesive cells were cultured in RPMI medium containing 1000 U/ml GM-CSF and 1000 U/ml IL-4, 10% FBS, 25 mM HEPES, 2 mM L-glutamic acid, 50 μM 2-ME, 1% nonessential amino acids, and 2 mM sodium pyruvate under hypoxic conditions (oxygen concentration was 1%; herein, hypoxic conditions refer to conditions where the oxygen concentration is 1%) or normoxic conditions (oxygen concentration was 20%; herein, normoxic conditions refer to conditions where the oxygen concentration is 20%) at 37° C. under an 5% carbon dioxide atmosphere for six days with half of the medium being changed every day. On day six, the cells were collected and divided into two groups. The first group was cultured in a medium containing IL-4 and GM-CSF for one day, and then used as immature dendritic cells. […]
The infiltration activity of dendritic cells was measured by the Transwell Chamber method using the following procedure: a Matrigel was immobilized onto a membrane that separates a top chamber and a bottom chamber; after washing, dendritic cells were placed in the top chamber; 100 ng/ml recombinant human RANTES was placed in the bottom chamber when immature dendritic cells were used, or 100 ng/ml recombinant human MCP-3 was placed in the bottom chamber when mature dendritic cells were used; cells migrating into the bottom chamber were counted. […]
The mature dendritic cells obtained in Example 1 were cultured in the culture medium supplemented with 1 μM all-trans retinoic acid to induce their differentiation. Then, the infiltration activity of dendritic cells was determined by the same procedure described in Example 7.

MMP-9 mRNA = MMP-9 mRNA level in mature dendritic cells after induction of differentiation; type: cell-based, human; settings: medium with 1 μM for three days, or 5 μM for one day then 1 μM for two days, FIG. 9
Method: Total RNA was isolated from the cultured cells (1×10^6 cells) using TRIzol reagent (Life Technologies). Each RNA sample (2 μg) was converted to cDNA in 50 μl of reaction mixture containing 75 mM KCl, 50 mM Tris-HCl (pH 8.3), 3 mM MgCl2, 10 mM dithiothreitol, 0.5 mM each of dNTPs, 2 μM random primer, and 1000 U of TaqMan Reverse Transcription reagent. Each cDNA (10 ng) was amplified in triplicate using an SYBR-Green PCR assay kit, and sequenced using an ABI PRISM 7900HT sequence Detection System. PCR was carried out by incubation at 50° C. for 2 minutes and then at 95° C. for 15 minutes, followed by 15 cycles of denaturation at 95° C., 30 cycles of annealing at 60° C., and extension at 72° C. for 1 minute. […] The mature dendritic cells obtained in Example 1 were cultured in the culture medium supplemented with 1 μM all-trans retinoic acid for three days or in the culture medium supplemented with 5 μM all-trans retinoic acid for one day. The cells were further cultured in the culture medium supplemented with 1 μM all-trans retinoic acid for two days, to induce the differentiation of the dendritic cells. After the induction of the differentiation, MMP-9 mRNA level in the cells was determined.

| Compound | infiltration activity of immature and mature dendritic cells (dendritic cells; cells differentiated under hypoxic conditions) | infiltration activity of immature and mature dendritic cells (dendritic cells; cells differentiated under normoxic conditions) | infiltration activity of dendritic cells (dendritic cells; mature dendritic cells differentiated under hypoxic conditions, 1 μM in culture medium, FIG. 10) | MMP-9 mRNA level in the cells (MMP-9 mRNA) |
| --- | --- | --- | --- | --- |
| TIMP-1 protein: TIMP-1 is an MMP-9-specific inhibitor; protein added at 10 ng/ml | not changed | reduced | – | – |
| CC1=C(/C=C/C(C)=C/C=C/C(C)=C/C(=O)O)C(C)(C)CCC1 [all-trans retinoic acid] | – | – | increased | increased |
